pIC50: −log10 of the molar value.
Experiments:
[1] = tested on: Panel NCI-60 (60 carcinoma cell lines); assay: Cytotoxicity against human Panel NCI-60 (60 carcinoma cell lines) assessed as mean growth inhibition; assay type: functional
SN12C = assay: Cytotoxicity against human SN12C cells assessed as cell growth inhibition; assay type: functional, cell-based
A498 = assay: Cytotoxicity against human A498 cells assessed as cell growth inhibition; assay type: functional, cell-based
PC-3 = assay: Cytotoxicity against human PC-3 cells assessed as cell growth inhibition; assay type: functional, cell-based
NCI-H460 = assay: Cytotoxicity against human NCI-H460 cells assessed as cell growth inhibition; assay type: functional, cell-based
HT-29 [2] = assay: Cytotoxicity against human HT-29 cells assessed as cell growth inhibition; assay type: functional, cell-based
UACC-62 = assay: Cytotoxicity against human UACC-62 cells assessed as cell growth inhibition; assay type: functional, cell-based
M14 = assay: Cytotoxicity against human M14 cells assessed as cell growth inhibition; assay type: functional, cell-based
KM12 = assay: Cytotoxicity against human KM12 cells assessed as cell growth inhibition; assay type: functional, cell-based
K562 = assay: Cytotoxicity against human K562 cells assessed as cell growth inhibition; assay type: functional, cell-based
MDA-MB-231 = assay: Cytotoxicity against human MDA-MB-231 cells assessed as cell growth inhibition; assay type: functional, cell-based
OVCAR-8 = assay: Cytotoxicity against human OVCAR-8 cells assessed as cell growth inhibition; assay type: functional, cell-based
BT-549 = assay: Cytotoxicity against human BT-549 cells assessed as cell growth inhibition; assay type: functional, cell-based
HCT-116 = assay: Cytotoxicity against human HCT-116 cells assessed as cell growth inhibition; assay type: functional, cell-based
786-0 = assay: Cytotoxicity against human 786-0 cells assessed as cell growth inhibition; assay type: functional, cell-based
HOP-62 = assay: Cytotoxicity against human HOP-62 cells assessed as cell growth inhibition; assay type: functional, cell-based
MDA-MB-435 = assay: Cytotoxicity against human MDA-MB-435 cells assessed as cell growth inhibition; assay type: functional, cell-based
RXF 393 = assay: Cytotoxicity against human RXF 393 cells assessed as cell growth inhibition; assay type: functional, cell-based
DU-145 = assay: Cytotoxicity against human DU-145 cells assessed as cell growth inhibition; assay type: functional, cell-based
SK-MEL-28 = assay: Cytotoxicity against human SK-MEL-28 cells assessed as cell growth inhibition; assay type: functional, cell-based
SK-MEL-5 = assay: Cytotoxicity against human SK-MEL-5 cells assessed as cell growth inhibition; assay type: functional, cell-based
NCI-H522 = assay: Cytotoxicity against human NCI-H522 cells assessed as cell growth inhibition; assay type: functional, cell-based
HCT-15 = assay: Cytotoxicity against human HCT-15 cells assessed as cell growth inhibition; assay type: functional, cell-based
UO-31 = assay: Cytotoxicity against human UO-31 cells assessed as cell growth inhibition; assay type: functional, cell-based
SW-620 = assay: Cytotoxicity against human SW620 cells assessed as cell growth inhibition; assay type: functional, cell-based
SNB-19 = assay: Cytotoxicity against human SNB-19 cells assessed as cell growth inhibition; assay type: functional, cell-based
CAKI-1 = assay: Cytotoxicity against human CAKI-1 cells assessed as cell growth inhibition; assay type: functional, cell-based
HOP-92 = assay: Cytotoxicity against human HOP-92 cells assessed as cell growth inhibition; assay type: functional, cell-based
SF-268 = assay: Cytotoxicity against human SF-268 cells assessed as cell growth inhibition; assay type: functional, cell-based
IGROV-1 = assay: Cytotoxicity against human IGROV-1 cells assessed as cell growth inhibition; assay type: functional, cell-based
CCRF-CEM = assay: Cytotoxicity against human CCRF-CEM cells assessed as cell growth inhibition; assay type: functional, cell-based
Hs-578T = assay: Cytotoxicity against human Hs-578T cells assessed as cell growth inhibition; assay type: functional, cell-based
UACC-257 = assay: Cytotoxicity against human UACC-257 cells assessed as cell growth inhibition; assay type: functional, cell-based
OVCAR-5 = assay: Cytotoxicity against human OVCAR-5 cells assessed as cell growth inhibition; assay type: functional, cell-based
OVCAR-3 = assay: Cytotoxicity against human OVCAR-3 cells assessed as cell growth inhibition; assay type: functional, cell-based
U-251 = assay: Cytotoxicity against human U-251 cells assessed as cell growth inhibition; assay type: functional, cell-based
NCI-H226 = assay: Cytotoxicity against human NCI-H226 cells assessed as cell growth inhibition; assay type: functional, cell-based
A549 = assay: Cytotoxicity against human A549 cells assessed as cell growth inhibition; assay type: functional, cell-based
RPMI-8226 = assay: Cytotoxicity against human RPMI-8226 cells assessed as cell growth inhibition; assay type: functional, cell-based
NCI-H23 = assay: Cytotoxicity against human NCI-H23 cells assessed as cell growth inhibition; assay type: functional, cell-based
OVCAR-4 = assay: Cytotoxicity against human OVCAR-4 cells assessed as cell growth inhibition; assay type: functional, cell-based
COLO 205 = assay: Cytotoxicity against human COLO 205 cells assessed as cell growth inhibition; assay type: functional, cell-based
MOLT-4 = assay: Cytotoxicity against human MOLT-4 cells assessed as cell growth inhibition; assay type: functional, cell-based
SK-MEL-2 = assay: Cytotoxicity against human SK-MEL-2 cells assessed as cell growth inhibition; assay type: functional, cell-based
Malme-3M = assay: Cytotoxicity against human Malme-3M cells assessed as cell growth inhibition; assay type: functional, cell-based
HL-60(TB) = assay: Cytotoxicity against human HL-60(TB) cells assessed as cell growth inhibition; assay type: functional, cell-based
SK-OV-3 = assay: Cytotoxicity against human SK-OV-3 cells assessed as cell growth inhibition; assay type: functional, cell-based
SNB-75 = assay: Cytotoxicity against human SNB-75 cells assessed as cell growth inhibition; assay type: functional, cell-based
SF-539 = assay: Cytotoxicity against human SF-539 cells assessed as cell growth inhibition; assay type: functional, cell-based
TK-10 = assay: Cytotoxicity against human TK-10 cells assessed as cell growth inhibition; assay type: functional, cell-based
T47D = assay: Cytotoxicity against human T47D cells assessed as cell growth inhibition; assay type: functional, cell-based
ACHN = assay: Cytotoxicity against human ACHN cells assessed as cell growth inhibition; assay type: functional, cell-based
MCF7 = assay: Cytotoxicity against human MCF7 cells assessed as cell growth inhibition; assay type: functional, cell-based
NCI/ADR-RES = assay: Cytotoxicity against human NCI/ADR-RES cells assessed as cell growth inhibition; assay type: functional, cell-based
HCC 2998 = assay: Cytotoxicity against human HCC 2998 cells assessed as cell growth inhibition; assay type: functional, cell-based
[3] = Cytotoxicity against human F180 cells assessed as cell growth inhibition; assay type: toxicity, cell-based
[4] = Cytotoxicity against human hTERT-HME1 cells assessed as cell growth inhibition; assay type: toxicity, cell-based
HT-29 [5] = assay: Antiproliferative activity against human HT-29 cells assessed as reduction in cell viability; assay type: functional, cell-based

For `O=C(Nc1ccc(NS(=O)(=O)c2ccccc2)cc1)C12CC3CC(CC(C3)C1)C2`, the “inhibition (INH)” value [1] was 97.88%.
For `O=C(n1ccc2cc(OS(=O)(=O)c3ccccc3)ccc21)C12CC3CC(CC(C3)C1)C2`, the “inhibition (INH)” value [1] was 88%.
Work on `O=c1[nH]cc(F)c(=O)[nH]1` [FLUOROURACIL] yielded a pIC50 (SN12C) of 6.31, a pIC50 (A498) of 6.46 and a pIC50 (PC-3) of 5.63. The pIC50 (NCI-H460) was 7.30, the pIC50 (HT-29 [2]) was 6.77 and the pIC50 (UACC-62) was 6.28. For the same compound, the pIC50 (M14) was 6.01, the pIC50 (KM12) was 6.68 and the pIC50 (K562) was 5.45. The pIC50 (MDA-MB-231) was 5.18, the pIC50 (OVCAR-8) was 5.76 and the pIC50 (BT-549) was 4.97. The pIC50 (HCT-116) was 6.66, the pIC50 (786-0) was 6.14 and the pIC50 (HOP-62) was 6.41. It also gave a pIC50 (MDA-MB-435) of 7.15, a pIC50 (RXF 393) of 5.58 and a pIC50 (DU-145) of 6.44. The pIC50 (SK-MEL-28) was 5.99, the pIC50 (SK-MEL-5) was 6.34 and the pIC50 (NCI-H522) was 5.14. It also gave a pIC50 (HCT-15) of 6.96, a pIC50 (UO-31) of 5.85 and a pIC50 (SW-620) of 6.04. The pIC50 (SNB-19) was 5.42, the pIC50 (CAKI-1) was 7.15 and the pIC50 (HOP-92) was 4.11. It also gave a pIC50 (SF-268) of 5.79, a pIC50 (IGROV-1) of 5.91 and a pIC50 (CCRF-CEM) of 5.00. The pIC50 (Hs-578T) was 5.01, the pIC50 (UACC-257) was 5.45 and the pIC50 (OVCAR-5) was 4.96. It also gave a pIC50 (OVCAR-3) of 8.00, a pIC50 (U-251) of 6.04 and a pIC50 (NCI-H226) of 4.26. The pIC50 (A549) was 6.74, the pIC50 (RPMI-8226) was 7.40 and the pIC50 (NCI-H23) was 6.48. It also gave a pIC50 (OVCAR-4) of 5.35, a pIC50 (COLO 205) of 6.82 and a pIC50 (MOLT-4) of 6.46. It also gave a pIC50 (SK-MEL-2) of 4.25, a pIC50 (Malme-3M) of 7.30 and a pIC50 (HL-60(TB)) of 5.64. For the same compound, the pIC50 (SK-OV-3) was 4.66, the pIC50 (SNB-75) was 4.10 and the pIC50 (SF-539) was 7.22. It also gave a pIC50 (TK-10) of 5.95, a pIC50 (T47D) of 5.09 and a pIC50 (ACHN) of 6.57. It also gave a pIC50 (MCF7) of 7.15, a pIC50 (NCI/ADR-RES) of 6.51 and a pIC50 (HCC 2998) of 7.30.
For `O=C(n1ccc2cc(OS(=O)(=O)c3ccc(F)cc3)ccc21)C12CC3CC(CC(C3)C1)C2`, the “inhibition (INH)” value [1] was 86%.
Work on `COc1cccc2c1C(=O)c1c(O)c3c(c(O)c1C2=O)C[C@@](O)(C(=O)CO)C[C@@H]3O[C@H]1C[C@H](N)[C@H](O)[C@H](C)O1` [DOXORUBICIN] yielded a pIC50 [3] of 6.85 and a pIC50 [4] of 6.11.
In the case of `O=C(Nc1ccc(OS(=O)(=O)c2ccc(F)cc2)cc1)C1CCCCC1`, the pIC50 (HT-29 [5]) was 5.33.
